The values below come from patent US11857565B2, “Hydrophobic Auristatin F compounds and conjugates thereof” (priority 2018, dated 2024).

Starred links: 1 amine or outer side, 2 acyl side, 3 side chain; linkers in the order of their positions; H or OH if unused. Non-standard residues stand in square brackets, D forms with d. Residues, ends and D or L forms follow the SMILES beside them. *: point of attachment. Dolaproine = CO[C@@H]([C@@H]1CCCN1)[C@@H](C)C(=O)O; X2 = CC(C)[C@@H](C(=O)[*:2])N(C)CCCCCN(C)[*:1]; X5 = CC(C)[C@@H](C(=O)[*:2])N(C)CCCN(C)[*:1]; Dil = CC[C@H](C)[C@H](NC)[C@@H](CC(=O)O)OC; X6 = CC(C)[C@@H](C(=O)[*:2])N(C)CCCN[*:1]; X1 = C[C@@H](N*)[C@@H](O)c1ccccc1; NMeV = CN[C@H](C(=O)O)C(C)C; Boc = CC(C)(C)OC(=O)*

Common to all, as to assay type: cell-based
Test [1] has as its system MDR− HL60 acute myeloid leukemia cell line. Briefly: In vitro cytotoxicity (CellTiter-Glo cell proliferation assay), free drugs on HL60. Particulars: free drug, 96 h incubation; read-out: In vitro IC50 HL60 (MDR−). The method, then:
(§1) The cytotoxicity of an auristatin Ligand Drug Conjugate or free auristatin drug was measured by a cell proliferation assay employing the protocol described in Promega Corp. Technical Bulletin TB288; Mendoza et al., 2002, Cancer Res. 62:5485-5488), the methods of which is specifically incorporated by reference herein. Briefly, an aliquot of 100 μl of cell culture containing about […] (e.g., HL-60, SK-MEL-5, etc.) in medium is deposited in each well of a 96-well, opaque-walled plate. Control wells were prepared containing medium and without cells. Free Drug or conjugate is added to the experimental wells and incubated for 96 h and are then equilibrated to room temperature for approximately 30 minutes whereupon a volume of CellTiter-Glo™ reagent equal to the volume of cell culture medium present in each well is added. The contents are mixed for 2 minutes on an orbital shaker to induce cell lysis and the plate is incubated at room temperature for 10 minutes to stabilize the luminescence signal for recordation.
For orientation: Cellular ATP, detected with luciferase, serves as a proxy for viable cell number.

Test [2] relates to MDR+ HL60/RV acute myeloid leukemia cell line. Briefly: In vitro cytotoxicity (CellTiter-Glo cell proliferation assay), free drugs on HL60/RV. Particulars: free drug, 96 h incubation; read-out: In vitro IC50 HL60/RV (MDR+). The method, then:
as §1

The test system of test [3] is SK-MEL-28 Melanoma. The test is described as follows: In vitro cytotoxicity, free drugs on SK-MEL-28. Particulars: free drug. The protocol:
as §1

Test [4] relates to SK-MEL-5 Melanoma. Briefly: In vitro cytotoxicity, free drugs on SK-MEL-5. The settings on record: free drug. The protocol: as §1
Test [5] concerns A2058 Melanoma. Briefly: In vitro cytotoxicity, free drugs on A2058. Particulars: free drug. The protocol:
as §1

Test [6] relates to A375 Melanoma. The test is described as follows: In vitro cytotoxicity, free drugs on A375. The settings on record: free drug. The method, then:
as §1

In test [7] the test system is IGR-37 Melanoma. Briefly: In vitro cytotoxicity, free drugs on IGR-37. The settings on record: free drug. The protocol: as §1
The nature of test [8]: In vitro cytotoxicity, free drugs on Colo-853. Particulars: free drug; read-out: In vitro IC50 Colo-853 Colon Cancer. The protocol:
as §1

Test [9] deals with 786-O Renal Cell Carcinoma. The test is described as follows: In vitro cytotoxicity, 4-load auristatin ADCs on 786-O. The settings on record: 4-load ADC. The method, then: as §1
For test [10], the system named is A498 Renal Cell Carcinoma. The test is described as follows: In vitro cytotoxicity, 4-load auristatin ADCs on A498. Particulars: 4-load ADC. The protocol:
as §1

In test [11] the test system is L428 Hodgkin Lymphoma. Briefly: In vitro cytotoxicity, 4-load auristatin ADCs on L428. Particulars: 4-load ADC. The protocol: as §1

On to `CC[C@H](C)[C@@H]([C@@H](CC(=O)N1CCC[C@H]1[C@H](OC)[C@@H](C)C(=O)N[C@H](C)[C@@H](O)c1ccccc1)OC)N(C)C(=O)[C@@H](NC(=O)[C@@H](NC)C(C)C)C(C)C` [Compound 3, Monomethyl auristatin E, reference compound] (H-[NMeV]V[Dil][Dolaproine]-X1), for which the IC50 in test [1] worked out at 1 nM; in test [2], 180 nM; in [3] it was 0.1 nM; in test [4], 0.1 nM; in test [5], 0.1 nM; in test [6], 0.1 nM. The IC50 in test [7] was found to be 0.2 nM; in [8], 0.1 nM.

For the molecule `CC[C@H](C)[C@@H]([C@@H](CC(=O)N1CCC[C@H]1[C@H](OC)[C@@H](C)C(=O)N[C@@H](Cc1ccccc1)C(=O)O)OC)N(C)C(=O)[C@@H](NC(=O)[C@H](C(C)C)N(C)CCCN(C)C(=O)OC(C)(C)C)C(C)C` [Compound 25, (Boc-N-methyl)-propyl-AF] (Boc-[X5]V[Dil][Dolaproine]F-OH), the IC50 was 17.2 nM in test [3] (Homo sapiens, SK-MEL-28); 6.1 nM in test [4] (Homo sapiens, SK-MEL-5); 4 nM in test [5] (Homo sapiens, A2058); 5.9 nM in [6] (Homo sapiens, A-375); 16.1 nM in [7] (Homo sapiens, IGR-37); 15.1 nM in [8].

Take `CC[C@H](C)[C@@H]([C@@H](CC(=O)N1CCC[C@H]1[C@H](OC)[C@@H](C)C(=O)N[C@@H](Cc1ccccc1)C(=O)O)OC)N(C)C(=O)[C@@H](NC(=O)[C@H](C(C)C)N(C)CCCNC(=O)OC(C)(C)C)C(C)C` [Compound 18, N-Boc-propyl-AF] (Boc-[X6]V[Dil][Dolaproine]F-OH): the IC50 was determined as 21 nM in [3] (Homo sapiens, SK-MEL-28); 4 nM in [4] (Homo sapiens, SK-MEL-5); 9.1 nM in test [5] (Homo sapiens, A2058); 4.9 nM in test [6] (Homo sapiens, A-375); 13.7 nM in test [7] (Homo sapiens, IGR-37); 17.5 nM in test [8].

`CC[C@H](C)[C@@H]([C@@H](CC(=O)N1CCC[C@H]1[C@H](OC)[C@@H](C)C(=O)N[C@@H](Cc1ccccc1)C(=O)O)OC)N(C)C(=O)[C@@H](NC(=O)[C@H](C(C)C)N(C)CCCCCN(C)C(=O)OC(C)(C)C)C(C)C` [Compound 26, (Boc-N-methyl)-pentyl-AF] (Boc-[X2]V[Dil][Dolaproine]F-OH): the IC50 in test [3] (Homo sapiens, SK-MEL-28) was found to be 9.6 nM; in test [4] (Homo sapiens, SK-MEL-5), 0.9 nM; in test [5] (Homo sapiens, A2058), 0.9 nM; in test [6] (Homo sapiens, A-375), 2.1 nM; in [7] (Homo sapiens, IGR-37), 6.5 nM; in test [8] it was 12.5 nM.

On to `CC[C@H](C)[C@@H]([C@@H](CC(=O)N1CCC[C@H]1[C@H](OC)[C@@H](C)C(=O)N[C@@H](Cc1ccccc1)C(=O)O)OC)N(C)C(=O)[C@@H](NC(=O)[C@@H](NC)C(C)C)C(C)C` [Compound 2, Monomethyl auristatin F, reference compound] (H-[NMeV]V[Dil][Dolaproine]F-OH), for which the IC50 was found to be 138 nM in test [3]; 35.6 nM in test [4]; 84.2 nM in test [5]; 48.9 nM in test [6]; 72.5 nM in test [7]; 90.2 nM in test [8].

B1: h1F6-37(4): 4-load auristatin ADC targeting CD70: h1F6 antibody conjugated to drug linker compound 37 (conjugate, chains of the INN, looked up)
VH: QVQLVQSGAEVKKPGASVKVSCKASGYTFTNYGMNWVRQAPGQGLKWMGWINTYTGEPTYADAFKGRVTMTRDTSISTAYMELSRLRSDDTAVYYCARDYGDYGMDYWGQGTTVTVSS
VL: DIVMTQSPDSLAVSLGERATINCRASKSVSTSGYSFMHWYQQKPGQPPKLLIYLASNLESGVPDRFSGSGSGTDFTLTISSLQAEDVAVYYCQHSREVPWTFGQGTKVEIK
modifications: auristatin drug linker compound 37, 4-load
With B1, the “In vitro IC50 786-O Renal Cell Carcinoma” value in test [9] stood at 23 ng/mL. The “In vitro IC50 A498 Renal Cell Carcinoma” value in test [10] worked out at 39 ng/mL. For the same molecule, the “In vitro IC50 L428 Hodgkin Lymphoma” value in test [11] worked out at 2 ng/mL.

B2: h1F6-35(4): 4-load auristatin ADC targeting CD70: h1F6 antibody conjugated to drug linker compound 35 (conjugate, chains of the INN, looked up)
VH: B1 VH
VL: B1 VL
modifications: auristatin drug linker compound 35, 4-load
For the molecule B2, the “In vitro IC50 786-O Renal Cell Carcinoma” value in [9] was found to be 7 ng/mL. The “In vitro IC50 A498 Renal Cell Carcinoma” value in [10] came out at 23 ng/mL. Also, the “In vitro IC50 L428 Hodgkin Lymphoma” value in test [11] was found to be 2 ng/mL.

B3: h1F6-38(4): 4-load auristatin ADC targeting CD70: h1F6 antibody conjugated to drug linker compound 38 (conjugate, chains of the INN, looked up)
VH: B1 VH
VL: B1 VL
modifications: auristatin drug linker compound 38, 4-load
B3: the “In vitro IC50 786-O Renal Cell Carcinoma” value in test [9] came to 12 ng/mL. For the same molecule, in test [10], the “In vitro IC50 A498 Renal Cell Carcinoma” value turned out to be 36 ng/mL. In addition, the “In vitro IC50 L428 Hodgkin Lymphoma” value in test [11] turned out to be 2 ng/mL.

B4: h1F6-mc-vc-MMAE(4): comparator 4-load h1F6 ADC having an mc-vc-MMAE drug linker (conjugate, chains of the INN, looked up)
VH: B1 VH
VL: B1 VL
modifications: mc-vc-MMAE, 4-load
notes: comparator 4-load h1F6 ADC having an mc-vc-MMAE drug linker
B4: the “In vitro IC50 786-O Renal Cell Carcinoma” value in [9] is recorded as greater than 1000 ng/mL. In addition, in [10], the “In vitro IC50 A498 Renal Cell Carcinoma” value is recorded as greater than 1000 ng/mL. The “In vitro IC50 L428 Hodgkin Lymphoma” value in test [11] is recorded as greater than 1000 ng/mL.

B5: h1F6-36(4): 4-load auristatin ADC targeting CD70: h1F6 antibody conjugated to drug linker compound 36 (conjugate, chains of the INN, looked up)
VH: B1 VH
VL: B1 VL
modifications: auristatin drug linker compound 36, 4-load
Consider B5, for which the “In vitro IC50 786-O Renal Cell Carcinoma” value in test [9] is 4 ng/mL. Besides, the “In vitro IC50 A498 Renal Cell Carcinoma” value in test [10] is 9 ng/mL. In test [11], the “In vitro IC50 L428 Hodgkin Lymphoma” value was 1 ng/mL.

B6: h1F6-mc-vc-MMAF(4): comparator 4-load h1F6 ADC having an mc-vc-MMAF drug linker (conjugate, chains of the INN, looked up)
VH: B1 VH
VL: B1 VL
modifications: mc-vc-MMAF, 4-load
notes: comparator 4-load h1F6 ADC having an mc-vc-MMAF drug linker
Take B6: the “In vitro IC50 786-O Renal Cell Carcinoma” value in test [9] stood at 5 ng/mL. The “In vitro IC50 A498 Renal Cell Carcinoma” value in test [10] is reported as 8 ng/mL. The “In vitro IC50 L428 Hodgkin Lymphoma” value in [11] is 7 ng/mL.
